Reference: patent publication US20230117034A1, “PYRAZOLOTRIAZINES” (Bayer Aktiengesellschaft, priority 2019, published 2023)

Key:
CDK12/CycK = CDK12/CycK (Homo sapiens, UniProt Q9NYV4); test: CDK12/CycK high ATP kinase assay (TR-FRET, 2 mM ATP); type: biochemical; details: 2 mM ATP (high ATP); median; read-out: CDK12/CyclinK, 2 mM ATP (high ATP), IC50-[mol/l] (median)
Outline: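 His-tagged human CDK12/CycK (~0.75 nM) pre-incubated 15 min with compound, then 60 min at 22 °C with 2 mM ATP and 1 µM biotinylated peptide (HEPES pH 7.5, 20 mM MgCl2). EDTA stop; phospho-Ser62 antibody/Eu anti-rabbit and streptavidin-XL665 TR-FRET, 665/620 nm ratio normalised to give IC50.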

CDK9/CycT1 = biological target: T1, CDK9/CycT1 (Homo sapiens, UniProt P50750); test: CDK9/CycT1 high ATP kinase assay (TR-FRET, 2 mM ATP); type: biochemical; details: 2 mM ATP (high ATP); median; read-out: CDK9/CyclinT1, 2 mM ATP (high ATP), IC50 (median)
T1 construct: Recombinant full-length His-tagged human CDK9 and CycT1; purchased Life Technologies PV4131; host or cells: insect cells
T1 sequence (P50750 whole entry): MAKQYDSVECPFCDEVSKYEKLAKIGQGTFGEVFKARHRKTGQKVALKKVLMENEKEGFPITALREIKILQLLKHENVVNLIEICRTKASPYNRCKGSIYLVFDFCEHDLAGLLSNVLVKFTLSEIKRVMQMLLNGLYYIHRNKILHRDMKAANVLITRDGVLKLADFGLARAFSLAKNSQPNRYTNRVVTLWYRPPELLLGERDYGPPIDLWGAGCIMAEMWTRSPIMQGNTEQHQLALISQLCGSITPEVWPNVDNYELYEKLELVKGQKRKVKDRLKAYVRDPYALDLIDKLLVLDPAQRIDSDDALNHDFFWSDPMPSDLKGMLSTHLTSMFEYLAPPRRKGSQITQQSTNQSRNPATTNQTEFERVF
T1 sequence (O60563 whole entry partner): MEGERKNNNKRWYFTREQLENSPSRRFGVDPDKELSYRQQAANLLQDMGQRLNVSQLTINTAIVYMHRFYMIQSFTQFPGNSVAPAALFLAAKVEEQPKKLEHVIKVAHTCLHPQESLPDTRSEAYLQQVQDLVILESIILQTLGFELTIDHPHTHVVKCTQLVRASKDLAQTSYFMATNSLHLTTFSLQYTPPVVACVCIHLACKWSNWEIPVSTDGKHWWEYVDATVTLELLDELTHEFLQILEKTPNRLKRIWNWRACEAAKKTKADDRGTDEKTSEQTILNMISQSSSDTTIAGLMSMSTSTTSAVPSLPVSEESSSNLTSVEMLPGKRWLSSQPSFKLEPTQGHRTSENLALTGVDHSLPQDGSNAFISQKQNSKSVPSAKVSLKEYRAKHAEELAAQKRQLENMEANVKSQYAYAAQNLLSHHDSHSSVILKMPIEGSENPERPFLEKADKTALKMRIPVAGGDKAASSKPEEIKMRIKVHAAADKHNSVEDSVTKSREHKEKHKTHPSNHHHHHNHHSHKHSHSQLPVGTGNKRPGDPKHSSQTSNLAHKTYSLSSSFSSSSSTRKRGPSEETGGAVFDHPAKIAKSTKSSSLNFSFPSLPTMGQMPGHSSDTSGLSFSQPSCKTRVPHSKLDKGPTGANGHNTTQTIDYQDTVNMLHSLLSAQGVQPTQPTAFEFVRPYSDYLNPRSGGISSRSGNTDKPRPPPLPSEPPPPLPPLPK
Outline: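 Full-length His-tagged human CDK9/CycT1 (insect cell, ~0.5 μg/mL) preincubated 15 min at 22 °C with compound in Tris pH 8.0, MgCl2, DTT buffer before reaction with biotinylated peptide substrate at high ATP (2 mM).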

Sequence of CDK12/CycK (Q9NYV4 with tags, fused parts or gaps): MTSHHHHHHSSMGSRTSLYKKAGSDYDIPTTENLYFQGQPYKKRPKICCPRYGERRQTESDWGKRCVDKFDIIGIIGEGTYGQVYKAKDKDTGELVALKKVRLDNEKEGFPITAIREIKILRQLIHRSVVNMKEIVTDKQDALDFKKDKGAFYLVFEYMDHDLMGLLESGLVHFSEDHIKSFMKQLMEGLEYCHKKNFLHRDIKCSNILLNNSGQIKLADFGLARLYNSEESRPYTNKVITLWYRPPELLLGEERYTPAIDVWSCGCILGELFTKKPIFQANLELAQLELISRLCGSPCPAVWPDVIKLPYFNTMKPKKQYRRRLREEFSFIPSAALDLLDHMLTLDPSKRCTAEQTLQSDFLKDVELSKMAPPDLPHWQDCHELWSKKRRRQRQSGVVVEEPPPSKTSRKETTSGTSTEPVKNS
Sequence of CDK12/CycK (O75909 1-300 partner limits assumed): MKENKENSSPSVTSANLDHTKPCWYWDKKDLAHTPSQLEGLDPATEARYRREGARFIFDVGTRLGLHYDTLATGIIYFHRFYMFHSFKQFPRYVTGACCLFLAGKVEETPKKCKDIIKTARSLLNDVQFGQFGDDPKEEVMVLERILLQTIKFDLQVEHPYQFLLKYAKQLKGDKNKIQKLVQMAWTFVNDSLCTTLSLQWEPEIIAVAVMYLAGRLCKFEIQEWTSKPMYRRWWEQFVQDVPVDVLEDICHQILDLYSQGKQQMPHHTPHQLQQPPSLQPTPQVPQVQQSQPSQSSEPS

Row | Structure (SMILES) | IC50 (CDK12/CycK) [µM] | IC50 (CDK9/CycT1) [µM]
1 | Fc1ccccc1-c1cnn2c(NCc3nc4ccccc4[nH]3)nc(N3CCOCC3)nc12 [Example 95, N-[(1H-benzimidazol-2-yl)methyl]-8-(2-fluorophenyl)-2-(morpholin-4-yl)pyrazolo[1,5-a][1,3,5]triazin-4-amine] | > 20 | > 20
2 | Brc1cnn2c(NCc3nnc(-c4ccccc4)[nH]3)nc(N3C[C@H]4C[C@@H]3CO4)nc12 [Example 118, 8-bromo-2-[(1R,4R)-2-oxa-5-azabicyclo[2.2.1]heptan-5-yl]-N-[(5-phenyl-4H-1,2,4-triazol-3-yl)methyl]pyrazolo[1,5-a][1,3,5]triazin-4-amine] | 5.7 | 3.63
3 | CC(C)c1cnn2c(NCc3nc4ccccc4[nH]3)nc(N3CCOC[C@@H]3C)nc12 [Example 6, N-[(1H-benzimidazol-2-yl)methyl]-2-[(3S)-3-methylmorpholin-4-yl]-8-(propan-2-yl)pyrazolo[1,5-a][1,3,5]triazin-4-amine] | 1.78 | > 16.1
4 | Fc1cc(F)cc(-c2nnc(CNc3nc(N4CCOCC4)nc4c(Br)cnn34)[nH]2)c1 [Example 105, 8-bromo-N-{[5-(3,5-difluorophenyl)-4H-1,2,4-triazol-3-yl]methyl}-2-(morpholin-4-yl)pyrazolo[1,5-a][1,3,5]triazin-4-amine] | 1.07 | 0.613
5 | OCC1CCN1c1nc(NCc2nc3ccccc3[nH]2)n2ncc(Br)c2n1 (centres unmarked) [Example 147, [1-[4-(1H-benzimidazol-2-ylmethylamino)-8-bromo-pyrazolo[1,5-a][1,3,5]triazin-2-yl]azetidin-2-yl]methanol] | 4.97 | > 20
6 | Clc1ccccc1-c1cnc(CNc2nc(N3CCOCC3)nc3c(Br)cnn23)[nH]1 [Example 96, 8-bromo-N-{[5-(2-chlorophenyl)-1H-imidazol-2-yl]methyl}-2-(morpholin-4-yl)pyrazolo[1,5-a][1,3,5]triazin-4-amine] | 4.65 | 9.3
7 | Brc1cnn2c(NCc3nc4ccccc4[nH]3)nc(N3C[C@H]4C[C@@H]3CO4)nc12 [Example 102, N-[(1H-benzimidazol-2-yl)methyl]-8-bromo-2-[(1R,4R)-2-oxa-5-azabicyclo[2.2.1]heptan-5-yl]pyrazolo[1,5-a][1,3,5]triazin-4-amine] | 6.92 | > 20
8 | Brc1cnn2c(NCc3nc4ccccc4[nH]3)nc(N3CCOCC3)nc12 [Example 4, N-[(1H-benzimidazol-2-yl)methyl]-8-bromo-2-(morpholin-4-yl)pyrazolo[1,5-a][1,3,5]triazin-4-amine] | 1.74 | > 20
9 | Brc1cnn2c(NCc3nc4ccccc4[nH]3)nc(N3CCOCC3C3CC3)nc12 (centres unmarked) [Example 117, N-(1H-benzimidazol-2-ylmethyl)-8-bromo-2-(3-cyclopropylmorpholin-4-yl)pyrazolo[1,5-a][1,3,5]triazin-4-amine] | 4.82 | > 20
10 | CN1CCN(c2nc(NCc3nc4cc(F)ccc4[nH]3)n3ncc(C4CC4)c3n2)CC1 [Example 164, 8-cyclopropyl-N-[(5-fluoro-1H-benzimidazol-2-yl)methyl]-2-(4-methylpiperazin-1-yl)pyrazolo[1,5-a][1,3,5]triazin-4-amine] | > 20 | > 20
11 | C[C@@H]1CN(c2nc(NCc3nnc(-c4ccccc4)[nH]3)n3ncc(Br)c3n2)C[C@H](C)N1 [Example 127, 8-bromo-2-[(3R,5S)-3,5-dimethylpiperazin-1-yl]-N-[(5-phenyl-4H-1,2,4-triazol-3-yl)methyl]pyrazolo[1,5-a][1,3,5]triazin-4-amine] | 9.71 | 6.32
12 | CN1CCN(c2nc(NCc3nnc(-c4ccccc4)[nH]3)n3ncc(Br)c3n2)CC1=O [Example 121, 4-(8-bromo-4-{[(5-phenyl-4H-1,2,4-triazol-3-yl)methyl]amino}pyrazolo[1,5-a][1,3,5]triazin-2-yl)-1-methylpiperazin-2-one] | 7.47 | 10.1
13 | C[C@@H]1CN(c2nc(NCc3nc4cc(F)ccc4[nH]3)n3ncc(Br)c3n2)C[C@H](C)O1 [Example 110, 8-bromo-2-[(2R,6S)-2,6-dimethylmorpholin-4-yl]-N-[(5-fluoro-1H-benzimidazol-2-yl)methyl]pyrazolo[1,5-a][1,3,5]triazin-4-amine] | 0.405 | 5.47
14 | CC(C)c1cnn2c(NCc3nc4ccccc4[nH]3)nc(NCC(C)(C)O)nc12 [Example 10, 1-{[4-{[(1H-benzimidazol-2-yl)methyl]amino}-8-(propan-2-yl)pyrazolo[1,5-a][1,3,5]triazin-2-yl]amino}-2-methylpropan-2-ol] | 8.75 | > 20
15 | Brc1cnn2c(NCc3nc4ccccc4[nH]3)nc(N3C[C@@H]4C[C@H]3CO4)nc12 [Example 103, N-[(1H-benzimidazol-2-yl)methyl]-8-bromo-2-[(1S,4S)-2-oxa-5-azabicyclo[2.2.1]heptan-5-yl]pyrazolo[1,5-a][1,3,5]triazin-4-amine] | 10.3 | > 20
16 | COc1ccc2[nH]c(CNc3nc(N4C[C@@H](C)O[C@@H](C)C4)nc4c(Br)cnn34)nc2c1 [Example 124, 8-bromo-2-[(2R, 6S)-2,6-dimethylmorpholin-4-yl]-N-[(5-methoxy-1H-benzimidazol-2-yl)methyl]pyrazolo[1,5-a][1,3,5]triazin-4-amine] | 0.489 | 6.1
17 | C[C@@H]1CN(c2nc(NCc3nnc(-c4ccccc4)[nH]3)n3ncc(Br)c3n2)CCN1C.O=CO [Example 130, 8-bromo-2-[(3R)-3,4-dimethylpiperazin-1-yl]-N-[(5-phenyl-4H-1,2,4-triazol-3-yl)methyl]pyrazolo[1,5-a][1,3,5]triazin-4-amine formate] | 8.44 | 4.86
18 | CN1CCN(c2nc(NCc3nc4ccccc4[nH]3)n3ncc(Br)c3n2)CC1=O [Example 131, 4-(4-{[(1H-benzimidazol-2-yl)methyl]amino}-8-bromopyrazolo[1,5-a][1,3,5]triazin-2-yl)-1-methylpiperazin-2-one] | 11.1 | > 20
19 | CN1CCN(c2nc(NCc3nc4c(F)c(F)ccc4[nH]3)n3ncc(C4CC4)c3n2)CC1 [Example 159, 8-cyclopropyl-N-[(4,5-difluoro-1H-benzimidazol-2-yl)methyl]-2-(4-methylpiperazin-1-yl)pyrazolo[1,5-a][1,3,5]triazin-4-amine] | 9.62 | > 20
20 | NCCc1ccc2[nH]c(CNc3nc(N4CCOCC4)nc4c(Br)cnn34)nc2c1.O=CO [Example 113, formic acid-N-{[5-(2-aminoethyl)-1H-benzimidazol-2-yl]methyl}-8-bromo-2-(morpholin-4-yl)pyrazolo[1,5-a][1,3,5]triazin-4-amine (1/1)] | 1.71 | > 18.9
21 | CN1CCN(c2nc(NCc3nc4c(F)cccc4[nH]3)n3ncc(C4CC4)c3n2)CC1 [Example 165, 8-cyclopropyl-N-[(4-fluoro-1H-benzimidazol-2-yl)methyl]-2-(4-methylpiperazin-1-yl)pyrazolo[1,5-a][1,3,5]triazin-4-amine] | 10.2 | > 20
22 | c1ccc(-c2cnn3c(NCc4nc5ccccc5[nH]4)nc(N4CCOCC4)nc23)cc1 [Example 104, N-[(1H-benzimidazol-2-yl)methyl]-2-(morpholin-4-yl)-8-phenylpyrazolo[1,5-a][1,3,5]triazin-4-amine] | > 20 | > 20
